Drawing on publication PMC3156243, “Properties and Crystal Structure of Methylenetetrahydrofolate Reductase from Thermus thermophilus HB8” (PLoS ONE, 2011), this text covers Ki for one molecule.

This test has as its target T1, MTHFR (methylenetetrahydrofolate reductase) (Thermus thermophilus, UniProt Q5SLG6).
T1 construct: gene TTHA0327
As to the kind of experiment: biochemical.

T1 sequence (Q5SLG6 1-296): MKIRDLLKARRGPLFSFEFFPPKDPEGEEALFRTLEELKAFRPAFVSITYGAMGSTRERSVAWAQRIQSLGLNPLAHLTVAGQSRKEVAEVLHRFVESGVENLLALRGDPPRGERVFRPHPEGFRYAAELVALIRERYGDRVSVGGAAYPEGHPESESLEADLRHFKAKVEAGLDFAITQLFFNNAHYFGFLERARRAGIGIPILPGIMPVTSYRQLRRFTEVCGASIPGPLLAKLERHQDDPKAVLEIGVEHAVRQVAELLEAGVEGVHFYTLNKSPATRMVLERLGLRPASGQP

A word on the Ki: it is the equilibrium dissociation constant of an inhibitor or competing ligand from its target. Low readings indicate tighter binding, high ones weaker binding. The molecule `CN1c2c(nc(N)[nH]c2=O)NC[C@@H]1CNc1ccc(C(=O)N[C@@H](CCC(=O)O)C(=O)O)cc1` (mixture of isomers) [(6S)-5-CH3-H4folate] yielded a Ki of 15 ± 6 µM.
